Holding throughout (test): cells
Assay [1] concerns MESSA. Also on record: species or system MES-SA/Mx2. The settings on record: Homo sapiens, MES-SA, read-out: MES-SA.
A further assay concerns TG-LAM-134-P0. Set-up: species or system primary AML patient blasts. Conditions: 48 h.
The next assay concerns TG-LAM-135-P0. Set-up: species or system primary AML patient blasts. Conditions: 48 h.
The subject of another assay is TG-LAM-136-P0. Set-up: species or system primary AML patient blasts. Conditions: 48 h.
The next assay relates to TG-LAM-138-P0. Also on record: species or system primary AML patient blasts. The settings on record: 48 h.
A further assay deals with TG-LAM-139-P0. Set-up: species or system primary AML patient blasts. Conditions: 48 h.
A further assay has as its system TG-LAM-140-P0. Also on record: species or system primary AML patient blasts. Conditions: 48 h.
A further assay deals with TG-LAM-141-P0. Set-up: species or system primary AML patient blasts. Conditions: 48 h.
The subject of a further assay is TG-LAM-142-P0. Set-up: species or system primary AML patient blasts. The settings on record: 48 h.
Another assay concerns TG-LAM-144-P0. Set-up: species or system primary AML patient blasts. Conditions: 48 h.
For a further assay, the system named is TG-LAM-145-P0. Also on record: species or system primary AML patient blasts. The settings on record: 48 h.
Another assay relates to TG-LAM-77-P0. Set-up: species or system primary AML patient blasts. Conditions: 48 h.
Another assay deals with ACHN. The settings on record: Homo sapiens, ACHN, 144 h, read-out: Vincristine.
In a further assay the test system is HRT-18. Conditions: Homo sapiens, HRT-18, 144 h.
The test system of another assay is LnCaP. The settings on record: Homo sapiens, LNCaP, 144 h, read-out: Vincristine.
For a further assay, the system named is MCF-7. Conditions: Homo sapiens, MCF7, 144 h, read-out: Vincristine.
Assay [2] concerns MESSA. The settings on record: Homo sapiens, MES-SA, 144 h.
The next assay has as its system PC-3. Conditions: Homo sapiens, PC-3, 144 h, read-out: Vincristine.
A further assay relates to REC-1. Conditions: Homo sapiens, Rec1, 144 h.
Another assay relates to SW-872. Conditions: Homo sapiens, SW872, 144 h.
A further assay relates to TG-LAM-143-P0. Also on record: species or system primary AML patient blasts. Conditions: 48 h, read-out: IC50 (µM) / AzaC.
Another assay deals with TG-LAM-75-P3. Set-up: species or system primary AML patient blasts. The settings on record: 48 h, read-out: IC50 (µM) / AzaC.
For a further assay, the system named is TG-LAM-76-P3. Set-up: species or system primary AML patient blasts. Conditions: 48 h, read-out: IC50 (µM) / AzaC.
For the next assay, the system named is A-549. Conditions: Homo sapiens, A549, 144 h, read-out: Eribulin.
The test system of another assay is DU-145. Conditions: Homo sapiens, DU-145, 144 h, read-out: Eribulin.
Another assay relates to H-1299. The settings on record: Homo sapiens, NCI-H1299, 144 h, read-out: Eribulin.
The test system of the next assay is HEP-2. Conditions: Homo sapiens, HEp-2, 144 h, read-out: Eribulin.
In the next assay the test system is HL-60. Conditions: Homo sapiens, HL-60, 144 h, read-out: Eribulin.
For a further assay, the system named is HUT-78. Conditions: Homo sapiens, HuT78, 144 h, read-out: Eribulin.
The next assay concerns Karpas-299. Conditions: Homo sapiens, KARPAS-299, 144 h, read-out: Eribulin.
The subject of a further assay is NALM-6. Conditions: Homo sapiens, NALM-6, 144 h, read-out: Eribulin.
The test system of a further assay is U2OS. Conditions: Homo sapiens, U2OS, 144 h, read-out: Eribulin.

Where two headings read alike, the source gives them in different places.

On to `CC(=O)O[C@H]1C(=O)[C@@]2(C)[C@H]([C@H](OC(=O)c3ccccc3)[C@]3(O)C[C@H](OC(=O)[C@H](O)[C@@H](NC(=O)c4ccccc4)c4ccccc4)C(C)=C1C3(C)C)[C@]1(OC(C)=O)CO[C@@H]1C[C@@H]2O` [paclitaxel], for which the IC50 in the assay with MESSA [1] was 0.008 ± 0.005 µM.

For `CC[C@]1(O)C[C@H]2CN(CCc3c([nH]c4ccccc34)[C@@](C(=O)OC)(c3cc4c(cc3OC)N(C=O)[C@H]3[C@@](O)(C(=O)OC)[C@H](OC(C)=O)[C@]5(CC)C=CCN6CC[C@]43[C@@H]65)C2)C1` [Vincristine], the IC50 was 0.17 µM in the assay with TG-LAM-134-P0 (read-out: IC50 (µM) / Vinc); above 2 µM with TG-LAM-135-P0 (read-out: IC50 (µM) / Vinc); 1.35 µM with TG-LAM-136-P0 (read-out: IC50 (µM) / Vinc); above 2 µM with TG-LAM-138-P0 (read-out: IC50 (µM) / Vinc); above 2 µM in the assay with TG-LAM-139-P0 (read-out: IC50 (µM) / Vinc); 1.13 µM in the assay with TG-LAM-140-P0 (read-out: IC50 (µM) / Vinc). For the same compound, the IC50 with TG-LAM-141-P0 (read-out: IC50 (µM) / Vinc) is 1.38 µM; in the assay on TG-LAM-142-P0 (read-out: IC50 (µM) / Vinc) it was above 2 µM; with TG-LAM-144-P0 (read-out: IC50 (µM) / Vinc) it was 1.6 µM; in the assay on TG-LAM-145-P0 (read-out: IC50 (µM) / Vinc) it was above 2 µM; with TG-LAM-77-P0 (read-out: IC50 (µM) / Vinc) it was above 2 µM; in the assay on ACHN, 0.166 µM. Moreover, the IC50 came to 0.013 µM in the assay on HRT-18 (read-out: Vincristine); 0.066 µM in the assay on LnCaP; 0.037 µM in the assay on MCF-7; 0.106 µM with MESSA [2] (read-out: Vincristine); 0.023 µM in the assay with PC-3; 0.056 µM with REC-1 (read-out: Vincristine). For the same compound, the IC50 was 0.031 µM in the assay with SW-872 (read-out: Vincristine) and 0.0079 ± 0.006 µM with MESSA [1].

Take `Nc1ncn([C@@H]2O[C@H](CO)[C@@H](O)[C@H]2O)c(=O)n1` [5-azacytidine]: the IC50 in the assay on TG-LAM-134-P0 (read-out: IC50 (µM) / AzaC) was 39.1 µM; in the assay on TG-LAM-135-P0 (read-out: IC50 (µM) / AzaC) it was above 50 µM; in the assay with TG-LAM-136-P0 (read-out: IC50 (µM) / AzaC), above 50 µM; in the assay on TG-LAM-138-P0 (read-out: IC50 (µM) / AzaC) it was above 50 µM; in the assay on TG-LAM-139-P0 (read-out: IC50 (µM) / AzaC), 38.5 µM; in the assay with TG-LAM-140-P0 (read-out: IC50 (µM) / AzaC), 16.7 µM. The IC50 in the assay with TG-LAM-141-P0 (read-out: IC50 (µM) / AzaC) is 20.4 µM; in the assay on TG-LAM-142-P0 (read-out: IC50 (µM) / AzaC), above 50 µM; in the assay with TG-LAM-143-P0 it was 29.2 µM; in the assay on TG-LAM-144-P0 (read-out: IC50 (µM) / AzaC) it was 41.7 µM; with TG-LAM-145-P0 (read-out: IC50 (µM) / AzaC) it was 49.5 µM; in the assay on TG-LAM-75-P3, 13 µM. For the same compound, the IC50 is 9.7 µM in the assay with TG-LAM-76-P3 and 19.2 µM in the assay with TG-LAM-77-P0 (read-out: IC50 (µM) / AzaC).

For `C=C1C[C@@H]2CC[C@@]34C[C@H]5O[C@H]6[C@@H](O3)[C@H]3O[C@H](CC[C@@H]3O[C@H]6[C@H]5O4)CC(=O)C[C@@H]3[C@@H](OC)[C@@H](C[C@H](O)CN)O[C@H]3C[C@H]3O[C@@H](CC[C@@H]1O2)C[C@@H](C)C3=C` [Eribulin], the IC50 in the assay on A-549 was found to be 0.003 µM; with DU-145, 0.002 µM; in the assay on H-1299, 0.075 µM; with HEP-2 it was 0.039 µM; in the assay with HL-60, 0.002 µM; in the assay on HRT-18 (read-out: Eribulin), 0.099 µM. The IC50 was 0.001 µM with HUT-78; 0.001 µM in the assay on Karpas-299; 0.121 µM with MESSA [2] (read-out: Eribulin); 0.002 µM with NALM-6; 0.125 µM with REC-1 (read-out: Eribulin); 0.083 µM in the assay with SW-872 (read-out: Eribulin). Further, the IC50 with U2OS stood at 0.032 µM.
